In test [1] the test system is MDA-MB-231 (human breast adenocarcinoma) cells. The test is described as follows: WST-1 cell viability assay, MDA-MB-231. The format is cell-based. Conditions: Homo sapiens, MDA-MB-231; WST-1, 72 h exposure, ± SD, n = 6. How it is done:
The synthesized compounds were tested using three cancer cell lines—human amelanotic melanoma (C-32), human breast adenocarcinoma (MDA-MB-231), and human lung adenocarcinoma (A549)—and, for comparison, normal human dermal fibroblasts (HFF-1). The WST-1 (water-soluble tetrazole salt) assay was used to evaluate the effect of the synthesized compounds on the viability of cultured cells.
Compounds were evaluated for their antiproliferative activity using three cultured cell lines: C-32 (human amelanotic melanoma, ATCC, Manassas, VA, USA), A549 (human lung adenocarcinoma, ATCC, Manassas, VA, USA), MDA-MB-231 (human breast adenocarcinoma derived from metastatic site: pleural effusion, ATCC, Manassas, VA, USA), together with HFF-1 (normal human dermal fibroblasts, ATCC, Manassas, VA, USA). The cultured cells were kept at 37 °C and 5% CO2.
Cells were seeded in 96-well plates at 5000/well in 100 μL of medium. After 24 h of incubation, the medium was replaced with a new one with the addition of the test substance. After 72 h, the following tests were performed: with crystal violet (determination of the number of adherent cells in the culture), the WST-1 test (determination of the relative number of living cells and their metabolic activity), and the LDH test (determination of the relative number of dead cells in cultures—cytotoxicity of the tested substance).
WST-1 test: The WST-1 test (Roche Diagnostics, Mannheim, Germany) allows one to determine the relative number of cells in cultures. Absorbance is directly proportional to the number of cells and their metabolic activity. The absorbance measurement is performed at λ = 450 nm (reference wave 600 nm).
(Formazan colour is commonly taken as a measure of viable cells.)

The subject of test [2] is vancomycin-resistant E. faecalis VRE 368. The test is described as follows: MIC, microtitration broth method, VRE2. The format is cell-based. Conditions: Enterococcus faecalis, 24 h, 37 °C, BHI broth. The text has this:
(§1) Since there is a general decrease in immunity during the treatment of oncological patients, i.e., patients are more susceptible to infectious diseases, it is advantageous if anticancer agents show antimicrobial properties at the same time. Therefore, the effects of the compounds were also investigated against Gram-positive bacteria. For this purpose, the susceptible collection strains of aerobic Staphylococcus aureus ATCC 29213 and facultatively aerobic Enterococcus faecalis ATCC 29212 and resistant clinical isolates of methicillin-resistant S. aureus (MRSA) SA 3202, SA 630 carrying the mecA gene, and vancomycin-resistant isolates of E. faecalis (VRE) 342B, 368, and 725B carrying the vanA gene were selected. Thus, the selection of the studied bacterial strains was adopted following the CLSI ([…]) international reference methodologies.
(§2) The in vitro antibacterial activity of the synthesized compounds was evaluated against representatives of multidrug-resistant bacteria, […] clinical isolates of methicillin-resistant S. aureus: clinical isolates of human origin, MRSA SA 3202, and MRSA SA 630 (National Institute of Public Health, Prague, Czech Republic), carrying the mecA gene. These two clinical isolates were classified as vancomycin-susceptible (but with a higher MIC of vancomycin equal to 2 μg/mL (VA2-MRSA). Vancomycin- and methicillin-susceptible S. aureus ATCC 29213 and vancomycin-susceptible Enterococcus faecalis ATCC 29212, obtained from the American Type Culture Collection, were used as the reference and quality control strains. Three vanA gene-carrying vancomycin-resistant isolates of E. faecalis (VRE 342B, VRE 368, VRE 725B) (Department of Infectious Diseases and Microbiology, Faculty of Veterinary Medicine, University of Veterinary Sciences Brno, Czech Republic) were provided by Oravcova et al..
(§3) The minimum inhibitory concentrations (MICs) were evaluated by the microtitration broth method according to the CLSI, with some modifications. The compounds were dissolved in DMSO (Sigma, St. Louis, MO, USA) to obtain a concentration of […] and diluted in a microtitration plate in an appropriate medium, i.e., Cation-Adjusted Mueller–Hinton Broth (CaMH, Oxoid, Basingstoke, UK) for staphylococci, and Brain Heart Infusion Broth (BHI, Oxoid) for enterococci to reach the final concentration of 256–0.125 µg/mL. Microtiter plates were inoculated with test microorganisms so that the final concentration of bacterial cells was 10^5. Ampicillin, oxacillin, and ciprofloxacin (Sigma) were used as reference drugs. A drug-free control and a sterility control were included. The plates were incubated for 24 h at 37 °C for staphylococci and enterococci. […] The experiments were repeated three times.

Test [3] relates to vancomycin-resistant E. faecalis VRE 725B. The test is described as follows: MIC, microtitration broth method, VRE3. The format is cell-based. To be noted: Enterococcus faecalis, 24 h, 37 °C, BHI broth.
Description: as §1, §2, §3

The next test deals with S. aureus ATCC 29213. Description: MTT assay of bacterial respiratory activity. The format is cell-based, Staphylococcus aureus. To be noted: for S. aureus Respiration Inhibition: 24 h, at the lowest multiple of MIC giving at least 70% inhibition; for Conc.: lowest multiple of MIC with at least 70% inhibition of respiratory activity / Conc.: the same concentration as multiple of MBC: S. aureus ATCC 29213. The text has this:
The MTT assay can be used to assess cell growth by measuring respiration. Bacterial cell respiratory activity (which is ultimately reflected in their viability) of less than 70% after exposure to the MIC values for each test compound is considered as a positive result for this test. This low level of cellular oxidative metabolism indicates inhibition of cell growth by inhibition of respiration. The lowest multiples of the MIC values by which inhibition of S. aureus ATCC 29213 viability [%] greater than 70% was achieved are shown in Table 4. […] Therefore, the antibacterial activity of the discussed compounds cannot be explained solely on the basis of respiration inhibition, so it is very difficult to draw a conclusion regarding the actual mechanism of action, since 8-HQs are multi-target agents, i.e., they affect several different targets at once (as discussed in the section dedicated to anticancer activity), which subsequently leads to the death of the treated resistant microorganisms.
Compounds were prepared as previously stated and diluted in CaMH broth for S. aureus to achieve the desired final concentrations. S. aureus bacterial suspension in sterile distilled water at 0.5 McFarland was diluted 1:3. Inocula were added to each well by multi-inoculator. Diluted mycobacteria in broth free from inhibiting compounds were used as the growth control. All compounds were prepared in duplicate. Plates were incubated at 37 °C for 24 h for S. aureus. After the incubation period, 10% well volume of MTT (3-(4,5-dimethylthiazol-2-yl)-2,5-diphenyltetrazolium bromide) reagent (Sigma) was mixed into each well and incubated at 37 °C 1 h for S. aureus. Then, 100 µL of 17% sodium dodecyl sulphate in 40% dimethylformamide was added to each well. The plates were read at 570 nm. The absorbance readings from the cells grown in the presence of the tested compounds were compared with uninhibited cell growth to determine the relative percent inhibition. The percent inhibition was determined through MTT assay. The percent viability is calculated through the comparison of a measured value and that of the uninhibited control: % viability = OD570E/OD570P × 100, where OD570E is the reading from the compound-exposed cells, while OD570P is the reading from the uninhibited cells (positive control). Cytotoxic potential is determined by a percent viability of <70% [81, 82].

What is called IC50 is the concentration at which inhibition is half-maximal. Low values mean greater potency, high ones weaker potency. As usually defined, the MIC is the lowest concentration found to suppress growth.

Converted amounts (≈) assume the structure as drawn.

In test [1], `C#CC(C)(C)NS(=O)(=O)c1ccc(O)c2ncccc12` [3b, 8-Hydroxy-N-(1,1-dimethylprop-2-yn-1-yl)quinoline-5-sulfonamide] showed an IC50 of 55.8 ± 1.9 µM. Besides, the MIC in test [2] turned out to be 883 µM (≈ 256 µg/mL). Further, in test [3], inhibition of growth (MIC) required 883 µM (≈ 256 µg/mL). Besides, in the test with S. aureus ATCC 29213, the “S. aureus Respiration Inhibition” value is listed as 94.4%, the “Conc.: lowest multiple of MIC with at least 70% inhibition of respiratory activity” value is listed as 2× MIC (2× MBC) and the “Conc.: the same concentration as multiple of MBC” value (from here on “Conc.: the same concentration”) was 2× MIC (2× MBC).
The molecule `C#CCOc1ccc(NS(=O)(=O)c2ccc(O)c3ncccc23)cc1` [3d, 8-Hydroxy-N-[4-(prop-2-yn-1-yloxy)phenyl]quinoline-5-sulfonamide] returned an IC50 in test [1] of 45.3 ± 5.4 µM. This molecule came in with an MIC in test [2] of 362 µM (≈ 128 µg/mL). In addition, in test [3], inhibition of growth (MIC) required 362 µM (≈ 128 µg/mL). In addition, in the test on S. aureus ATCC 29213, the “S. aureus Respiration Inhibition” value stood at 73.0%, the “Conc.: lowest multiple of MIC with at least 70% inhibition of respiratory activity” value was 1× MIC (1× MBC) and the “Conc.: the same concentration” value is given as 1× MIC (1× MBC).
`C#CCOc1ccccc1NS(=O)(=O)c1ccc(O)c2ncccc12` [3f, 8-Hydroxy-N-[2-(prop-2-yn-1-yloxy)phenyl]quinoline-5-sulfonamide]: the IC50 in test [1] was 14.7 ± 1.2 µM. This molecule returned an MIC in test [2] of 362 µM (≈ 128 µg/mL). In addition, in test [3], the MIC was 362 µM (≈ 128 µg/mL). For the same molecule, in the test on S. aureus ATCC 29213, the “S. aureus Respiration Inhibition” value stood at 81.6%, the “Conc.: lowest multiple of MIC with at least 70% inhibition of respiratory activity” value is 1× MIC (1× MBC) and the “Conc.: the same concentration” value was 1× MIC (1× MBC).
Regarding `C#CCOc1cccc(NS(=O)(=O)c2ccc(O)c3ncccc23)c1` [3e, 8-Hydroxy-N-[3-(prop-2-yn-1-yloxy)phenyl]quinoline-5-sulfonamide], the IC50 in test [1] was 15.2 ± 0.8 µM. Also, the MIC in test [2] is 362 µM (≈ 128 µg/mL). It took 362 µM (≈ 128 µg/mL) to inhibit growth in test [3] (MIC). Besides, in the test with S. aureus ATCC 29213, the “S. aureus Respiration Inhibition” value turned out to be 73.7%, the “Conc.: lowest multiple of MIC with at least 70% inhibition of respiratory activity” value is listed as 1× MIC (1× MBC) and the “Conc.: the same concentration” value is reported as 1× MIC (1× MBC).
For the molecule `C#CCN(C)S(=O)(=O)c1ccc(O)c2ncccc12` [3c, 8-Hydroxy-N-methyl-N-(prop-2-yn-1-yl)quinoline-5-sulfonamide], the midpoint of inhibition in test [1], the IC50, lay at 2.2 ± 0.1 µM. The minimal inhibitory concentration (MIC) in test [2] stood at 464 µM (≈ 128 µg/mL). In test [3], this molecule showed an MIC of 464 µM (≈ 128 µg/mL). In addition, in the test with S. aureus ATCC 29213, the “S. aureus Respiration Inhibition” value is 95.2%, the “Conc.: lowest multiple of MIC with at least 70% inhibition of respiratory activity” value is 2× MIC (2× MBC) and the “Conc.: the same concentration” value was 2× MIC (2× MBC).
Regarding `C#CCNS(=O)(=O)c1ccc(O)c2ncccc12` [3a, 8-Hydroxy-N-(prop-2-yn-1-yl)quinoline-5-sulfonamide], in test [1], the midpoint of inhibition, the IC50, lay at 23.3 ± 1.2 µM. In test [2], the MIC was 977 µM (≈ 256 µg/mL). In test [3], the MIC was 977 µM (≈ 256 µg/mL). Besides, in the test on S. aureus ATCC 29213, the “S. aureus Respiration Inhibition” value came to 92.5%, the “Conc.: lowest multiple of MIC with at least 70% inhibition of respiratory activity” value was 1× MIC (1× MBC) and the “Conc.: the same concentration” value is 1× MIC (1× MBC).

The values are drawn from publication PMC11396667, “Design, Synthesis, and Anticancer and Antibacterial Activities of Quinoline-5-Sulfonamides” (Molecules, 2024).
